Results: patent US20170182104A1, “COMPOSITION CONTAINING MASTERWORT EXTRACT” (AMOREPACIFIC CORPORATION, priority 2014, published 2017)

Experiments:
Format in all cases: cell-based, human
[1] = system: EDN1 (endothelin 1) gene; test: Gene expression assay by real-time PCR: EDN1 gene in melanocytes; details: melanocytes (KaMC), 2 nM substance P, 5 days; relative to GAPDH, control group = 1
Method: (§1) Melanocytes (KaMC; KCTC 12015BP) deposited in the Korean Collection for Type Culture (KCTC) were cultured in M-254 medium (Gibco BRL, N.Y., USA) supplemented with Human Melanocyte Growth Supplement (HMGS; Gibco BRL, N.Y., USA) on a 6-well plate, while changing the medium every other day, in a 5% CO2 incubator at 37° C. until the cells occupied 95% of the plate area (95% confluence). […] The cells not treated with substance P or the masterwort (Peucedanum ostruthium) extract of Example 1 were used as a control group. After removing the medium form the melanocytes cultured on the 6-well plate, the cells were washed 2 times with cold phosphate-buffered saline (PBS) and the remaining water was completely removed. […] 1 μL of the RNA was quantified using Synergy II (Biotek, USA). […] After adding 10 μL of Taqman Gene Expression Master Mix (Life Technologies, USA) and 1 μL of Assays-on-DemandTM (Life Technologies, USA) of NK1 R (ACCESSION: NM_001058) and EDN1 (ACCESSION: NM_001168319) genes to 9 μL of the diluted cDNA, the expression of the genes was analyzed by relative quantification using 7500 Fast Real-Time PCR (Life Technologies, USA) with glyceraldehyde 3-phosphate dehydrogenase (GAPDH, ACCESSION: NM001256799) as a control gene. […]

[2] = system: endothelin 1 (EDN1); test: Endothelin 1 ELISA assay of culture medium of melanocytes; details: melanocytes (KaMC) medium, 2 nM substance P; absorbance/total protein, control group = 100%
Method: When the density of the melanocytes on the 6-well plate reached about 80% (˜80% confluence), they were incubated for a total of 5 days with 2 nM of stress-inducing substance P (Bachem Fechemikalien, Bubendorf, Switzerland) or the masterwort (Peucedanum ostruthium) extract of Example 1 of different concentrations (0, 0.1, 1, 2 and 5 ppm). The cells not treated with substance P or the masterwort (Peucedanum ostruthium) extract of Example 1 were used as a control group.
The culture medium of the cells treated with the extract in (2) of Test Example 1 were recovered and the amount of endothelin 1 (EDN1) comprised in the medium was measured at 450 nm using the human total endothelin ELISA kit (MyBioSource, USA).
Endothelin content (%)=(Absorbance/Total protein)×100 Equation 1

[3] = system: NK1R (neurokinin 1 receptor) gene; test: Gene expression assay by real-time PCR: NK1R gene in melanocytes; details: melanocytes (KaMC), 2 nM substance P, 5 days; relative to GAPDH, control group = 1
Method: as §1

`CSCC[C@H](NC(=O)[C@H](CC(C)C)NC(=O)CNC(=O)[C@H](Cc1ccccc1)NC(=O)[C@H](Cc1ccccc1)NC(=O)[C@H](CCC(N)=O)NC(=O)[C@H](CCC(N)=O)NC(=O)[C@@H]1CCCN1C(=O)[C@H](CCCCN)NC(=O)[C@@H]1CCCN1C(=O)[C@@H](N)CCCN=C(N)N)C(N)=O` [substance P] was tested. Which “expression of the EDN1 gene” value [1] did it give?
The value was 3.6.

And the “content of endothelin 1” value [2]?
The value was 124%.

What about the “expression of the NK1R gene” value [3] of the same molecule?
The value was 4.2.
